Laboratory results from ChEMBL document CHEMBL3112450, “Synthesis and in vitro antitumor evaluation of primary amine substituted quinazoline linked benzimidazole” (Bioorg Med Chem Lett, 2014).

Tests used:
Format in all cases: functional
U-251 = assay: Cytotoxicity against human U251 cells assessed as cell growth at 10^-7 M after 48 hrs by SRB assay; settings: U-251, 48 h, read-out: Activity
SW-620 [1] = assay: Cytotoxicity against human SW620 cells assessed as cell growth at 10^-4 M after 48 hrs by SRB assay; settings: SW-620, 48 h, read-out: Activity
OVCAR-3 [2] = assay: Cytotoxicity against human OVCAR3 cells assessed as cell growth at 10^-6 M after 48 hrs by SRB assay; settings: OVCAR-3, 48 h, read-out: Activity
HL-60(TB) = assay: Cytotoxicity against human HL-60(TB) cells assessed as cell growth at 10^-4 M after 48 hrs by SRB assay; settings: HL-60, 48 h, read-out: Activity
NCI-H226 [3] = assay: Cytotoxicity against human NCI-H226 cells assessed as cell growth at 10^-6 M after 48 hrs by SRB assay; settings: NCI-H226, 48 h, read-out: Activity
[4] = Cytotoxicity against human NCI-ADR-RES cells assessed as cell growth at 10^-4 M after 48 hrs by SRB assay; settings: read-out: Activity
SW-620 [5] = assay: Cytotoxicity against human SW620 cells assessed as cell growth at 10^-8 M after 48 hrs by SRB assay; settings: SW-620, 48 h, read-out: Activity
786-0 [6] = assay: Cytotoxicity against human 786-0 cells assessed as cell growth at 10^-4 M after 48 hrs by SRB assay; settings: 786-0, 48 h, read-out: Activity
SR = assay: Cytotoxicity against human SR cells assessed as cell growth at 10^-8 M after 48 hrs by SRB assay; settings: read-out: Activity
HCC 2998 = assay: Cytotoxicity against human HCC2998 cells assessed as cell growth at 10^-7 M after 48 hrs by SRB assay; settings: HCC 2998, 48 h, read-out: Activity
SF-539 [7] = assay: Cytotoxicity against human SF539 cells assessed as cell growth at 10^-6 M after 48 hrs by SRB assay; settings: SF-539, 48 h, read-out: Activity
MCF7 = assay: Cytotoxicity against human MCF7 cells assessed as cell growth at 10^-6 M after 48 hrs by SRB assay; settings: MCF7, 48 h, read-out: Activity
LOX IMVI = assay: Cytotoxicity against human LOXIMVI cells after 48 hrs by SRB assay
[8] = Cytotoxicity against human Hs578T cells assessed as cell growth at 10^-8 M after 48 hrs by SRB assay; settings: Hs-578T, read-out: Activity
A498 = assay: Cytotoxicity against human A498 cells assessed as cell growth at 10^-6 M after 48 hrs by SRB assay; settings: A498, 48 h, read-out: Activity
OVCAR-3 [9] = assay: Cytotoxicity against human OVCAR3 cells assessed as cell growth at 10^-7 M after 48 hrs by SRB assay; settings: OVCAR-3, 48 h, read-out: Activity
RXF 393 = assay: Cytotoxicity against human RXF393 cells after 48 hrs by SRB assay; settings: RXF 393, 48 h
NCI-H23 = assay: Cytotoxicity against human NCI-H23 cells assessed as cell growth at 10^-6 M after 48 hrs by SRB assay; settings: NCI-H23, 48 h, read-out: Activity
SN12C = assay: Cytotoxicity against human SN12C cells assessed as cell growth at 10^-8 M after 48 hrs by SRB assay; settings: read-out: Activity
[10] = Cytotoxicity against human Hs578T cells after 48 hrs by SRB assay; settings: Hs-578T
UACC-62 = assay: Cytotoxicity against human UACC62 cells after 48 hrs by SRB assay; settings: UACC-62, 48 h
[11] = Cytotoxicity against human OVCAR4 cells after 48 hrs by SRB assay; settings: OVCAR-4, 48 h
T47D [12] = assay: Cytotoxicity against human T47D cells assessed as cell growth at 10^-7 M after 48 hrs by SRB assay; settings: read-out: Activity
SF-295 = assay: Cytotoxicity against human SF295 cells assessed as cell growth at 10^-4 M after 48 hrs by SRB assay; settings: SF-295, 48 h, read-out: Activity
SF-539 [13] = assay: Cytotoxicity against human SF539 cells after 48 hrs by SRB assay; settings: SF-539, 48 h
MOLT-4 = assay: Cytotoxicity against human MOLT4 cells assessed as cell growth at 10^-4 M after 48 hrs by SRB assay; settings: MOLT-4, 48 h, read-out: Activity
NCI-H226 [14] = assay: Cytotoxicity against human NCI-H226 cells assessed as cell growth at 10^-8 M after 48 hrs by SRB assay; settings: NCI-H226, 48 h, read-out: Activity
T47D [15] = assay: Cytotoxicity against human T47D cells assessed as cell growth at 10^-4 M after 48 hrs by SRB assay; settings: read-out: Activity
HT-29 = assay: Cytotoxicity against human HT-29 cells after 48 hrs by SRB assay; settings: HT-29, 48 h
[16] = Cytotoxicity against human Hs578T cells assessed as cell growth at 10^-7 M after 48 hrs by SRB assay; settings: Hs-578T, read-out: Activity
[17] = Cytotoxicity against human OVCAR5 cells assessed as cell growth at 10^-6 M after 48 hrs by SRB assay; settings: OVCAR-5, 48 h, read-out: Activity
NCI-H522 = assay: Cytotoxicity against human NCI-H522 cells assessed as cell growth at 10^-7 M after 48 hrs by SRB assay; settings: NCI-H522, 48 h, read-out: Activity
COLO 205 = assay: Cytotoxicity against human COLO205 cells after 48 hrs by SRB assay; settings: COLO 205, 48 h
KM12 = assay: Cytotoxicity against human KM12 cells assessed as cell growth at 10^-7 M after 48 hrs by SRB assay; settings: KM12, 48 h, read-out: Activity
SNB-19 = assay: Cytotoxicity against human SNB19 cells assessed as cell growth at 10^-4 M after 48 hrs by SRB assay; settings: SNB-19, 48 h, read-out: Activity
IGROV-1 = assay: Cytotoxicity against human IGROV1 cells assessed as cell growth at 10^-4 M after 48 hrs by SRB assay; settings: IGROV-1, 48 h, read-out: Activity
MDA-MB-231 = assay: Cytotoxicity against human MDA-MB-231 cells assessed as cell growth at 10^-6 M after 48 hrs by SRB assay; settings: MDA-MB-231, 48 h, read-out: Activity
SK-MEL-28 = assay: Cytotoxicity against human SK-MEL-28 cells assessed as cell growth at 10^-7 M after 48 hrs by SRB assay; settings: SK-MEL-28, 48 h, read-out: Activity
786-0 [18] = assay: Cytotoxicity against human 786-0 cells assessed as cell growth at 10^-8 M after 48 hrs by SRB assay; settings: 786-0, 48 h, read-out: Activity

SMILES: C=CCn1c(C)nc2cc(Nc3nc(Nc4ccc5nc(C)n(CC=C)c5c4)c4ccccc4n3)ccc21
- growth at 0.1 µM (U-251): 95%
- growth at 100 µM (SW-620 [1]): -8%
- growth at 1 µM (OVCAR-3 [2]): -78%
- growth at 100 µM (HL-60(TB)): -28%
- growth at 1 µM (NCI-H226 [3]): 89%
- growth at 100 µM [4]: -24%
- growth at 0.01 µM (SW-620 [5]): 97%
- growth at 100 µM (786-0 [6]): -21%
- growth at 0.01 µM (SR): 95%
- growth at 0.1 µM (HCC 2998): 100%
- growth at 1 µM (SF-539 [7]): 56%
- growth at 1 µM (MCF7): -63%
- GI50 (LOX IMVI): 180 nM
- LC50 (LOX IMVI): 640 nM
- TGI (LOX IMVI): 339 nM
- growth at 0.01 µM [8]: 90%
- growth at 1 µM (A498): 93%
- growth at 0.1 µM (OVCAR-3 [9]): 101%
- GI50 (RXF 393): 373 nM
- TGI (RXF 393): 1790 nM
- growth at 1 µM (NCI-H23): 100%
- growth at 0.01 µM (SN12C): 94%
- GI50 [10]: 2160 nM
- LC50 [10]: > 100000 nM
- TGI [10]: 5160 nM
- GI50 (UACC-62): 1260 nM
- TGI (UACC-62): 2590 nM
- GI50 [11]: 276 nM
- TGI [11]: 730 nM
- growth at 0.1 µM (T47D [12]): 94%
- growth at 100 µM (SF-295): -85%
- GI50 (SF-539 [13]): 1100 nM
- LC50 (concentration giving 50% net cell kill) (SF-539 [13]): 4790 nM
- TGI (SF-539 [13]): 2300 nM
- growth at 100 µM (MOLT-4): -18%
- growth at 0.01 µM (NCI-H226 [14]): 93%
- growth at 100 µM (T47D [15]): -13%
- GI50 (HT-29): 190 nM
- LC50 (concentration killing 50% of cells) (HT-29): 100000 nM
- TGI (HT-29): 349 nM
- growth at 0.1 µM [16]: 96%
- growth at 1 µM [17]: 20%
- growth at 0.1 µM (NCI-H522): 90%
- GI50 (COLO 205): 195 nM
- TGI (COLO 205): 375 nM
- growth at 0.1 µM (KM12): 98%
- growth at 100 µM (SNB-19): -35%
- growth at 100 µM (IGROV-1): -43%
- growth at 1 µM (MDA-MB-231): -62%
- growth at 0.1 µM (SK-MEL-28): 106%
- growth at 0.01 µM (786-0 [18]): 99%
